# Test results: patent US20050260202A1, “Methods for producing proliferating muscle cells” (The Regents of the University of California, priority 2004, published 2005)
# Experiments:
# [1] = target: murine Sca-1 (stem cell antigen-1) (murine) (UniProt P05533); experiment: cell-based or functional assay
# C2C12 cells = experiment: Fyn mutant assay: GFP-positive myoblasts to myotubes; type: cell-based, mouse; conditions: five days in differentiation medium
# Excerpt: This example describes the expression of wild type and mutant Fyn proteins to analyse the role of Fyn in Sca-1-mediated myogenesis. Briefly, a 1615 bp fragment of pCMV-FynDN (Ko et al., J. Biol Chem, 277:46085-46092, 2002), containing the full-length, dominant negative K299M mutant of mouse Fyn, was PCR-amplified using primers 5′-TTATGCGGCC GCATGGGCTGTG TGCAATGTAAGG-3′ (SEQ ID NO:7) and 5′-GCATGCATGC TACAGGTTT TCACCAGGTT GG-3′ (SEQ ID NO:8) and cloned into the NotI/SphI sites of pIRES-hrGFP-1a (Stratagene). The pCMV-FynDN plasmid was kindly provided by Marilyn Resh (Sloan-Kettering Cancer Center). Similarly, a 1.6 kb BamHI fragment of Fyn-Y531F (Maulon et al., Oncogene, 20:1964-1972, 2001), containing the full-length, constitutively active Y531F mutant of mouse Fyn, was cloned into the BamHI site of pIRES-hrGFP-1a (Stratagene). The Fyn-Y531F DNA was generously provided by Patrick Auberger (INSERM). […] Expression of mutants and GFP was determined by immunoblot of whole cell lysates from transfected C2C12 cells with anti-Fyn antibody (Santa Cruz Biotechnology), and immunofluorescence detection of GFP in live cells. […] Data was acquired with a Nikon Microphot-FX fluorescence microscope and Spot imaging software. […] The effect of Fyn mutants on cell fusion was measured as the ratio of GFP-positive mononuclear myoblasts to GFP-positive myotubes (cells with 2 or more nuclei).
# QM7 avian myoblasts [2] = experiment: BrdU incorporation in QM7 cells; type: cell-based, quail; conditions: QM7, differentiation conditions, PIPLC 5 U/ml
# Excerpt: (§1) Actively growing C2C12, Sol8, and L6 skeletal myoblasts (ATCC) were maintained in DMEM with 10%, 20%, or 10% FBS, respectively. QM7 quail skeletal myoblasts (kindly provided by Charles Ordahl, UCSF) were maintained in M199 medium with 10% tryptose phosphate and 10% FBS. Myoblast differentiation was induced by culture of confluent monolayers in DMEM with 1% FBS for C2C12 and Sol8 cells, 2% horse serum for L6 cells, or M199 medium with 10% tryptase phosphate and 0.5% FBS for QM7 cells. For PIPLC treatment, 5 U/ml of PIPLC (Sigma) was added into the culture medium when cells reached confluence, and with daily media changes. […]
# (§2) Cells were plated on cover slips, cultured under conditions described above in Example 1, and labeled with BrdU for 60 min using Labeling and Detection Kit I (Roche) according to the manufacturer's instructions. […] Immunofluorescence signals were acquired with a Nikon Microphot-FX fluorescence microscope and Spot imaging software. Nuclei from low-power (10×) images were analyzed to quantitate BrdU incorporation and myoblast fusion. Each culture stage was analyzed in triplicate, with data representing the mean of 10 high-power fields. Cell proliferation was calculated as percent BrdU-positive nuclei per field. Cell fusion was calculated as average number of DAPI staining nuclei per myotube.
# L6 rat myoblasts [3] = experiment: BrdU incorporation in L6 cells; type: cell-based; conditions: L6, differentiation conditions, PIPLC 5 U/ml
# Excerpt: as §1, §2
# L6 rat myoblasts [4] = experiment: Myoblast fusion assay in L6 cells; type: cell-based; conditions: L6, differentiation conditions, PIPLC 5 U/ml
# Excerpt: as §1, §2
# Sol8 murine myoblasts [5] = experiment: BrdU incorporation in Sol8 cells; type: cell-based, mouse; conditions: Sol8, differentiation conditions, PIPLC 5 U/ml
# Excerpt: as §1, §2
# C2C12 myoblasts [6] = experiment: Myoblast fusion assay in C2C12 cells; type: cell-based, mouse; conditions: C2C12, differentiation conditions, PIPLC 5 U/ml
# Excerpt: as §1, §2
# C2C12 myoblasts [7] = experiment: BrdU incorporation (cell proliferation) in C2C12 cells; type: cell-based, mouse; conditions: C2C12, differentiation conditions, PIPLC 5 U/ml
# Excerpt: as §1, §2
# Sca-1 = Sca-1 expression by immunoblot and immunostaining; type: cell-based, mouse; conditions: C2C12 cells
# Description: Immunoblot analysis was performed using previously described methods (Hlaing et al., J Biol Chem, 277:23794-23799, 2002). Briefly, cells were lysed by sonication in lysis buffer (50 mM Tris-HCl, pH 7.5, 150 mM NaCl, 3 mM EDTA, 3 mM EGTA, 1% SDS, 10% glycerol), boiled for 5 min, and centrifuged at 16,000×g for 2 min. Protein concentrations of supernatants were measured by BCA assay (Pierce), and equal amounts of protein (100-200 μg) were separated by SDS-polyacrylamide gel electrophoresis. Immunoblots were analyzed with 5 μg/ml monoclonal antibody against Sca-1 (Pharmingen) or β-actin (Sigma), and 1 μg/ml HRP-conjugated goat-anti mouse IgG (Bio-Rad).
# To detect Sca-1, Myf5, MyoD, and myogenin in situ, wild type and stably transfected C2C12 cells were plated on cover slips, grown as described for the indicated lengths of time, and stained with either 2.5 μg/ml monoclonal anti-Sca-1 antibody (clone E13-161.7; Pharmingen) and 4 μg/ml FITC-conjugated goat anti-rat IgG (Pharmingen), or 10 μg/ml rabbit polyclonal anti-Myf5, anti-MyoD, or anti-myogenin antibody (Santa Cruz Biotechnology) and 2 μg/ml FITC-conjugated goat anti-rabbit IgG (Molecular Probes), as previously described (Liu et al., Cell Biochem Biophys, 39:119-131, 2003).
# Sol8 murine myoblasts [8] = experiment: Myoblast fusion assay in Sol8 cells; type: cell-based, mouse; conditions: Sol8, differentiation conditions, PIPLC 5 U/ml
# Excerpt: as §1, §2
# QM7 avian myoblasts [9] = experiment: Myoblast fusion assay in QM7 cells; type: cell-based, quail; conditions: QM7, differentiation conditions, PIPLC 5 U/ml
# Excerpt: as §1, §2
# Chain of UniProt P05533 (P05533 27-112 limits assumed): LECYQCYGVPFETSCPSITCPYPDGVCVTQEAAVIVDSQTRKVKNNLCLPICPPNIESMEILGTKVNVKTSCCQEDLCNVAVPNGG
substance,measurement,setting,value
"monoclonal rat anti-Sca-1 antibody, clone E13-161.7 (Pharmingen)","BrdU positive nuclei (proliferation), E13-161.7 and D7 in combination versus untreated (% BrdU positive nuclei)",[1],11
same,"nuclei per myotube (myoblast fusion), E13-161.7 and D7 in combination versus untreated (nuclei per myotube)",[1],14
"monoclonal anti-Sca-1 antibody, clone D7 (Pharmingen)","BrdU positive nuclei (proliferation), E13-161.7 and D7 in combination versus untreated (% BrdU positive nuclei)",[1],11
same,"nuclei per myotube (myoblast fusion), E13-161.7 and D7 in combination versus untreated (nuclei per myotube)",[1],14
"dominant-negative mutant of Fyn: Full-length dominant negative K299M mutant of mouse Fyn, co-expressed with GFP from pIRES-hrGFP-1a",ratio of transfected myoblasts to myotubes,C2C12 cells; Sca-1 antisense-expressing cells,2.3+/−0.7
"constitutively active form of Fyn: Full-length constitutively active Y531F mutant of mouse Fyn, co-expressed with GFP from pIRES-hrGFP-1a",ratio of transfected myoblasts to myotubes,C2C12 cells; wild type C2C12 cells,4.9+/−1.7
phosphatidylinositol-specific phospholipase-C [PIPLC],BrdU incorporation,QM7 avian myoblasts [2],48±5 % BrdU positive nuclei
same,BrdU incorporation,L6 rat myoblasts [3],20±2 % BrdU positive nuclei
same,myoblast fusion,L6 rat myoblasts [4],2±1 nuclei/myotube
same,BrdU incorporation,Sol8 murine myoblasts [5],18±2 % BrdU positive nuclei
same,myoblast fusion,C2C12 myoblasts [6],3±1 nuclei/myotube
same,BrdU incorporation,C2C12 myoblasts [7],37±2 % BrdU positive nuclei
same,removal of Sca-1 from cell surface,Sca-1,strips Sca-1 from the surface
same,myoblast fusion,Sol8 murine myoblasts [8],5±1 nuclei/myotube
same,myoblast fusion,QM7 avian myoblasts [9],1±0.2 nuclei/myotube
